Test results published in publication PMC12499452, “The Multitarget Compound ZLY032 Achieves Treatment of Chronic Wounds” (Advanced Science, 2025).

What was measured:
FFA1 = molecular target: T1, FFA1 (Homo sapiens, UniProt O14842); test: cellular thermal shift assay (CETSA), Western blot; format: cell-based; details: HEK293T cells
T1 construct: gene FFAR1; apparently endogenous in HEK293T cells (no transfection told); Western blot read-out

PPARδ = molecular target: T2, PPARδ (Homo sapiens, UniProt Q03181); test: cellular thermal shift assay (CETSA), Western blot; format: cell-based; details: HEK293T cells
T2 construct: gene PPARD; apparently endogenous in HEK293T cells (no transfection told); Western blot read-out
T2 sequence (Q03181 1-441): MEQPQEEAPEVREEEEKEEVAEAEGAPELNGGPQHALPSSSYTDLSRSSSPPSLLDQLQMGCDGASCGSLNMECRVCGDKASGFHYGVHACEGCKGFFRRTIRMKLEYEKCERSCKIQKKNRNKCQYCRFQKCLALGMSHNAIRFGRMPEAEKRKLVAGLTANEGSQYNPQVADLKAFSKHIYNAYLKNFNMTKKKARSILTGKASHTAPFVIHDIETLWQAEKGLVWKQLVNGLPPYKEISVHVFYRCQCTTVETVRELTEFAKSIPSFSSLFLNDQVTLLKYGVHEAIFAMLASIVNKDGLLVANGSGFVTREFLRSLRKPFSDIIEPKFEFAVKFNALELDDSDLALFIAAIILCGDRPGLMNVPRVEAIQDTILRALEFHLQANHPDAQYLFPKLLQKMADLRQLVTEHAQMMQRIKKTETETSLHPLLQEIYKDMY

ASAL (from S. aureus) = molecular target: T3, ASAL (from S. aureus) (Staphylococcus aureus, UniProt Q2FIB5); test: surface plasmon resonance (Biacore T200, CM5 chip, immobilised protein); format: binding; details: read-out: affinity constant
T3 construct: gene argH; immobilised on CM5 chip
T3 sequence (Q2FIB5 1-459): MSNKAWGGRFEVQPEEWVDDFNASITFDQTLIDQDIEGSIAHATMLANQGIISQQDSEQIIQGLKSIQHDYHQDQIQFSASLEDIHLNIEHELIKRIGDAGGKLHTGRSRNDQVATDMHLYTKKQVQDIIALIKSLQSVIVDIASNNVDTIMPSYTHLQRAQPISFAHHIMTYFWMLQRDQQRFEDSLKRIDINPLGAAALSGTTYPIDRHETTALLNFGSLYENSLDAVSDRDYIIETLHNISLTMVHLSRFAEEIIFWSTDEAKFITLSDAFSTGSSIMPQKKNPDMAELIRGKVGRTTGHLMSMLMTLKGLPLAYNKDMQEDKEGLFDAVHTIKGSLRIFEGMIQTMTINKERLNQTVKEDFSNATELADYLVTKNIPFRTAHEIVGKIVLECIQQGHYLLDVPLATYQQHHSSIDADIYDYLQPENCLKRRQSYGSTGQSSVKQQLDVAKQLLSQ

T1 sequence (O14842 whole entry): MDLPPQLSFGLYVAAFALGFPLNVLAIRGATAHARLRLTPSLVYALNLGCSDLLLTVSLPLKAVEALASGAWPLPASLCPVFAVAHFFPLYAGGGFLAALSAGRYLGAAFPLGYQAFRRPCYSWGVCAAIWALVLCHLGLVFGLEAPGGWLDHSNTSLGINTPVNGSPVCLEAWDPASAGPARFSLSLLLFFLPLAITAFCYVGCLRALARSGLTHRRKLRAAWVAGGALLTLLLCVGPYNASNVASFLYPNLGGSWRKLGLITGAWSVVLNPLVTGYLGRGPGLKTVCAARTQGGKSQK

Compound: Cc1nc(-c2ccc(C(F)(F)F)cc2)sc1COc1ccc2c(c1)OC[C@H]2CC(=O)O [ZLY032]
- cellular thermal shift assay (CETSA), Western blot (FFA1): ZLY032 had direct binding ability with FFA1 and PPARδ (Figure S11, Supporting Information)
- cellular thermal shift assay (CETSA), Western blot (PPARδ): ZLY032 had direct binding ability with FFA1 and PPARδ (Figure S11, Supporting Information)
- Kd (ASAL (from S. aureus)): 10.9 µM
